Experimental data taken from US9133183B2, “Imidazolidinones and analogs exhibiting anti-cancer and anti-proliferative activities” (Deciphera Pharmaceuticals, LLC, priority 2013, dated 2015).
One block for each compound: values may come before it.

How the values were obtained:
[1] = molecular target: cMET kinase (Homo sapiens (Human), UniProt P08581); assay: cMET kinase inhibition (Table 4); format: biochemical
[2] = molecular target: KDR kinase (Homo sapiens (Human), UniProt P35968); assay: KDR kinase inhibition (Table 4); format: biochemical
[3] = molecular target: unphosphorylated PDGFRβ kinase (uPDGFRβ, Seq. ID No. 3) (Homo sapiens (Human), UniProt P09619); assay: Unphosphorylated PDGFRβ kinase assay (coupled pyruvate kinase/lactate dehydrogenase); format: biochemical; conditions: enzymatic assay, ATP 500 μM
How it was run: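 Construct residues 557-1106, unphosphorylated, 15.7 nM, with poly E4Y 2.5 mg/mL and 500 μM ATP, Tris pH 7.5, 1% DMSO, 30 °C. ADP coupled to NADH oxidation via PK/LDH, A340 followed 4 h; rate from 1.5-2.5 h versus no-compound control, IC50 from percent-inhibition series.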

[4] = test system: c-FMS; assay: cFOS mRNA production in a c-FMS mouse spleen pharmacodynamic model; format: in vivo; conditions: out to 8 h post 30 mg/kg dose, single oral dose
Protocol: Analysis of cFOS mRNA Production in a c-FMS Mouse Spleen Pharmacodynamic Model
To examine the in vivo modulation of FMS activity by compounds of formula I, spleen samples from female DBA/1 mice were collected and analyzed for M-CSF stimulated production of cFOS mRNA. Briefly, six to seven week old female Taconic DBA/1BO J Bom Tac mice were treated with a single oral dose (by gavage) of either vehicle or compound. Plasma and spleen samples were collected from four mice at each timepoint 2, 4, 6, 8, 12, 18, and 24 hours after dosing. Fifteen minutes prior to euthanasia, all mice were injected IV with 1 μg (100 μL fixed volume) of M-CSF. M-CSF, Recombinant Mouse Macrophage Colony Stimulating Factor (36.4 kDa homodimer, ≧98% purity) was obtained from Gibco. All procedures carried out in this experiment were conducted in compliance with all the laws, regulations and guidelines of the National Institutes of Health (NIH). cFOS mRNA levels in spleen extracts were determined using a quantitative reverse transcriptase PCR kit from Life Technologies. Plasma levels of FMS inhibitors were determined by mass spectrometer analysis. The degree of FMS inhibition was correlative to the amount of decrease observed in cFOS mRNA levels in the spleen samples of treated animals compared to vehicle.

[5] = test system: MDA-MB-231-luc-D3H2LN human breast carcinoma xenograft; assay: MDA-MB-231 xenograft study; format: in vivo, mouse; conditions: orally dosed at 30 mg/kg twice daily
Protocol: MDA-MB-231 Xenograft Study
To evaluate the in vivo anti-cancer activity compounds of formula I, a MDA-MB-231-luc-D3H2LN human breast carcinoma xenograft was employed. Briefly, MDA-MB-231-luc-D3H2LN cells were obtained from Xenogen and expanded in Minimal Essential Media (MEM) with EBSS which was modified with 1% L-glutamine and supplemented with 10% FBS, 1% PSG, 1% non-essential amino acids, and 1% sodium pyruvate. The growth environment was maintained in an incubator with a 5% CO2 atmosphere at 37° C. Cells were harvested and re-suspended using 50% serum-free media and 50% Matrigel® to generate a stock concentration of 5×10^6 cells/mL.
Six to 7 week old female C.B-17/IcrHsd-PrkdcscidLystbg mice were injected with 200 μL of cell suspension subcutaneously, just below the right axilla. All procedures carried out in this experiment were conducted in compliance with all the laws, regulations and guidelines of the National Institutes of Health (NIH). Treatment began when the mean tumor burden was approximately 150 mg. All mice were dosed with test compound by oral gavage. Body weights and tumor measurements were recorded three times weekly. […] Images were analyzed using Living Image (Xenogen, Alameda, Calif.) software. […]

Chain of cMET kinase (P08581 25-1390): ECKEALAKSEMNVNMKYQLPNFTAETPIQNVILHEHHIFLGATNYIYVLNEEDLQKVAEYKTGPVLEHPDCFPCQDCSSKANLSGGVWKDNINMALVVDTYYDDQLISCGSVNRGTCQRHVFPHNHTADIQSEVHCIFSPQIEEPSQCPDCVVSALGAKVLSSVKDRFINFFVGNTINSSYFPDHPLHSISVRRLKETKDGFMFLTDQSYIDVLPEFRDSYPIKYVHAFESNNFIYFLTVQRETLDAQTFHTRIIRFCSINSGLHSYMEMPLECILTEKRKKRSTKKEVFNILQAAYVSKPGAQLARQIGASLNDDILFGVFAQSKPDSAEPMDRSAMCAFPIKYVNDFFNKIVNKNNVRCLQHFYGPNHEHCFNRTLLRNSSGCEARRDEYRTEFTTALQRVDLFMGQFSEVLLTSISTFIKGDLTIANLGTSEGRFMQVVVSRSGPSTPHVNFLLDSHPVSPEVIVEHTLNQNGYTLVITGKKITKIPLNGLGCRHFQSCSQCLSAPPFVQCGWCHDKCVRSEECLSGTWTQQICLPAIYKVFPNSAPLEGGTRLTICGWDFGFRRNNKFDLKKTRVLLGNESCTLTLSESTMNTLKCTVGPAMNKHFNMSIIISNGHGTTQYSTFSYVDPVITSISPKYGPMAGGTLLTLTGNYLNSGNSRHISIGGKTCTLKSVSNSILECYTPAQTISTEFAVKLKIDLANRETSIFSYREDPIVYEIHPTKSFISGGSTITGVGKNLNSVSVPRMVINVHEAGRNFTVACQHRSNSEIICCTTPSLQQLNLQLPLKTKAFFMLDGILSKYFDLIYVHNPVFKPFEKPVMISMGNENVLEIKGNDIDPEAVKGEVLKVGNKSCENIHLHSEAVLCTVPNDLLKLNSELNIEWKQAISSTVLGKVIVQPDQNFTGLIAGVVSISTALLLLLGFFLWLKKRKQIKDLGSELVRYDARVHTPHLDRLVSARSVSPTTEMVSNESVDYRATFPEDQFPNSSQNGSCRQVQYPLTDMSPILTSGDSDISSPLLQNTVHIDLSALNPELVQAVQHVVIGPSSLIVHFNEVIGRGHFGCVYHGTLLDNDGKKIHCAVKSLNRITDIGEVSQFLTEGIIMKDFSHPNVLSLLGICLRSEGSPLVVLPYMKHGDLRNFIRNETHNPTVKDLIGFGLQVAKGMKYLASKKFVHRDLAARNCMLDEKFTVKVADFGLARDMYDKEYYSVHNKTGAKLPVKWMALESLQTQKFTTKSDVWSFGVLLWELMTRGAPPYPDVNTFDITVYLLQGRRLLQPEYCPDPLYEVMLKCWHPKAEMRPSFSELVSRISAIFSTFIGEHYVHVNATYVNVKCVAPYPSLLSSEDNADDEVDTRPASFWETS
Chain of KDR kinase (P35968 20-1356): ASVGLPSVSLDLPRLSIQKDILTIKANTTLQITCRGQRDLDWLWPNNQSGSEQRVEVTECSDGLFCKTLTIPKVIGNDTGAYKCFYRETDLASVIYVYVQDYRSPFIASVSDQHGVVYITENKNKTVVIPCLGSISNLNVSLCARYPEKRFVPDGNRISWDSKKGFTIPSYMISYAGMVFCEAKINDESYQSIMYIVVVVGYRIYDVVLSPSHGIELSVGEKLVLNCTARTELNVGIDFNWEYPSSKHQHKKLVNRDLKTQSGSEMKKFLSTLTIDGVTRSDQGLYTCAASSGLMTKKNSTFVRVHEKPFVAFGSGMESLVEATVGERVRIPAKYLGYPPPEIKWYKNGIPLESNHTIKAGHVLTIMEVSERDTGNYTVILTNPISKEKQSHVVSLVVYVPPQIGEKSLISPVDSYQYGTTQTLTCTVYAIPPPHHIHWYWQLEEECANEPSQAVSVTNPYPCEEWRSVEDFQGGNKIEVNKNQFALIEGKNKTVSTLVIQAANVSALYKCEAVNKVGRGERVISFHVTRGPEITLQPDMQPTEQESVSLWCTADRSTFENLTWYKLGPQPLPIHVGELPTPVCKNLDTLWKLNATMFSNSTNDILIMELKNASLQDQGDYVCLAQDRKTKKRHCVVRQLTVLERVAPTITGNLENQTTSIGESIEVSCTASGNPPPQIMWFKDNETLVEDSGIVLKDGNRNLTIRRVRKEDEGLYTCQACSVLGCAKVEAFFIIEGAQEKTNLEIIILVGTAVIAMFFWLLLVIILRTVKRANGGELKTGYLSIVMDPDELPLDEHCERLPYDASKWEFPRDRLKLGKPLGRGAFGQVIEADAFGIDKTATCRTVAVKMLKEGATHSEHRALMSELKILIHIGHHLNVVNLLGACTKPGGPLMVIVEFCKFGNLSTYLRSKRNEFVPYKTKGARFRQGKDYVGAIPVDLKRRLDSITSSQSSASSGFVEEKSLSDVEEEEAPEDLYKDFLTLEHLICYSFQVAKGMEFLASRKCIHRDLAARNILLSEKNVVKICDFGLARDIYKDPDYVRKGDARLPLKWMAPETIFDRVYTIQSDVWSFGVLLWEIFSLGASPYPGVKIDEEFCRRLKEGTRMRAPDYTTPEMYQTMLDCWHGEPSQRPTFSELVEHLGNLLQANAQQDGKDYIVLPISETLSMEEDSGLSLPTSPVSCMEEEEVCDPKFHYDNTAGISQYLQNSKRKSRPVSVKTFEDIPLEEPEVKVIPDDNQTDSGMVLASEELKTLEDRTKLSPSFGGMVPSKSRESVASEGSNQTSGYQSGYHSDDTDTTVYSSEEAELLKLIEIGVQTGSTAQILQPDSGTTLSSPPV
Chain of unphosphorylated PDGFRβ kinase (uPDGFRβ, Seq. ID No. 3) (P09619 557-1106): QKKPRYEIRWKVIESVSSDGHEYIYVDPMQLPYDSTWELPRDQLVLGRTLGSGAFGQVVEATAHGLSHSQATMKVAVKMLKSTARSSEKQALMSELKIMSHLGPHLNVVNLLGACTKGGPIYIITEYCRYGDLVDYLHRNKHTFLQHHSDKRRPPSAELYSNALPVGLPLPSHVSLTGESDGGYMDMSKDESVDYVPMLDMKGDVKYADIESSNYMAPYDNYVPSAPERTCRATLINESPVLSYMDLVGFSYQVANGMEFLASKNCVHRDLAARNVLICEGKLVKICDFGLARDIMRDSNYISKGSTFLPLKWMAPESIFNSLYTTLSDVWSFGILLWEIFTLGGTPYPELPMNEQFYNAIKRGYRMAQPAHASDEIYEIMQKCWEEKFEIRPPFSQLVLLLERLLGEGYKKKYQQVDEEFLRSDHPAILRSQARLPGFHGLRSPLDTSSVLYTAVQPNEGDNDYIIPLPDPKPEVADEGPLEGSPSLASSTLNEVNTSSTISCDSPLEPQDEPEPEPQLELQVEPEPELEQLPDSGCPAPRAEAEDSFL

SMILES: Cn1cc(-c2cc(Oc3ccc(NC(=O)N4CCN(C5CCOCC5)C4=O)nc3)ccn2)cn1 [Example 1, N-(5-((2-(1-methyl-1H-pyrazol-4-yl)pyridin-4-yl)oxy)pyridin-2-yl)-2-oxo-3-(tetrahydro-2H-pyran-4-yl)imidazolidine-1-carboxamide]
IC50 [1]: > 5 µM | IC50 [2]: > 3.3 µM | IC50 [3]: 100 to 1000 nM

SMILES: COCCN1CCN(C(=O)Nc2ccc(Oc3ccnc(-c4cnn(C)c4)c3)c(C)n2)C1=O [Example 18, 3-(2-methoxyethyl)-N-(6-methyl-5-((2-(1-methyl-1H-pyrazol-4-yl)pyridin-4-yl)oxy)pyridin-2-yl)-2-oxoimidazolidine-1-carboxamide]
inhibition of cFOS mRNA levels [4]: ≥ 70% | tumor growth inhibition [5]: 51% | IC50 [1]: > 5 µM | IC50 [2]: > 3.3 µM | IC50 [3]: > 1000 nM

SMILES: Cc1nc(NC(=O)N2CCN(C3CCCC3)C2=O)ccc1Oc1ccnc(-c2cnn(C)c2)c1 [Example 29, 3-cyclopentyl-N-(6-methyl-5-((2-(1-methyl-1H-pyrazol-4-yl)pyridin-4-yl)oxy)pyridin-2-yl)-2-oxoimidazolidine-1-carboxamide]
IC50 [1]: 0.898 µM | IC50 [2]: > 3.3 µM | IC50 [3]: > 1000 nM

SMILES: Cc1nc(NC(=O)N2CCN(C)C2=O)ccc1Oc1ccnc(-c2cnn(C)c2)c1 [Example 41, 3-methyl-N-(6-methyl-5-((2-(1-methyl-1H-pyrazol-4-yl)pyridin-4-yl)oxy)pyridin-2-yl)-2-oxoimidazolidine-1-carboxamide]
inhibition of cFOS mRNA levels [4]: ≥ 70% | IC50 [3]: > 1000 nM

SMILES: CCN1CCN(C(=O)Nc2ccc(Oc3ccnc(-c4cnn(C)c4)c3)c(C)n2)C1=O [Example 42, 3-ethyl-N-(6-methyl-5-((2-(1-methyl-1H-pyrazol-4-yl)pyridin-4-yl)oxy)pyridin-2-yl)-2-oxoimidazolidine-1-carboxamide]
inhibition of cFOS mRNA levels [4]: ≥ 70% | IC50 [1]: > 5 µM | IC50 [2]: > 10 µM | IC50 [3]: > 1000 nM

IC50 [3]: > 1000 nM
SMILES: CCN1CCN(C(=O)Nc2ccc(Oc3ccnc(-c4ccnc(C)c4)c3)c(C)n2)C1=O [Example 118, 3-ethyl-N-(6-methyl-5-((2′-methyl-[2,4′-bipyridin]-4-yl)oxy)pyridin-2-yl)-2-oxoimidazolidine-1-carboxamide]
inhibition of cFOS mRNA levels [4]: ≥ 70%
